Read-outs that look alike come from different tables or passages of the source.
What was measured:
[1] = system: Winter Barley cv Saffron; assay: Safening of fertilisers, pot trial: phytotoxicity and vigour scores, winter barley; format: in vivo; conditions: for Phytotoxicity (0-9) (0 = Dead) + 14 Days / Phytotoxicity (0-9) (0 = Dead) + 28 Days: score 0-9, 0 = dead
Description: (§1) The safening system and the fertilizer were applied either simultaneously or sequentially.
(§2) Sprayed: mid-tillering phase (GS23). Winter Wheat: cv Limerick, sown 4 Jun. […] Sprayed: mid-tillering phase (GS23). Lettuce: cv Set, sown 10 Jul. 2008, at one seed per pot, in John Innes No 1 compost. Date of spraying: 30 July; Dates of measurement: 7 August, 14 August, 28 August. Sprayed: 2 true leaf stage.

[2] = system: Winter Wheat cv Limerick; assay: Safening of fertilisers, pot trial: phytotoxicity and vigour scores, winter wheat; format: in vivo; conditions: for Vigour (0-9) (9 = Most Vigour) + 14 days / Vigour (0-9) + 28 Days: score 0-9
Description: as §1, §2

[3] = system: Lettuce cv Set; assay: Safening of fertilisers, pot trial: phytotoxicity and vigour scores, lettuce; format: in vivo
Description: as §1, §2

[4] = system: Oilseed rape cv Excalibur; conditions: for Greenness (0-9) (9 = Deeper Green) + 14 Days / Vigour (0-9) (9 = Most Vigour) + 14 days / Greenness (0-9) + 28 Days / Vigour (0-9) + 28 Days: score 0-9
Description: (§3) Safening systems were applied to crops of oilseed rape and winter treated with various herbicides (Bifenox (with insecticide), Carbetamide, Propaquizafop, Chlorotoluron, Isoproturon, Flumioxazin). The safening system and the herbicide were applied to the crops either simultaneously or sequentially.
(§4) Oilseed rape: cv Excalibur, sown 26 Apr. 2008, at two seeds per 9 cm pot, sown in normal pH multi-purpose compost. Date of spraying: 6 June; Dates of measurement/scoring: 13 June, 20 June, 5 July. Winter wheat: cv Alchemy, sown 23 Apr. 2008, at seven seeds per 9 cm pot, sown in normal pH multi-purpose compost. Date of spraying: 24 May; Dates of measurement/scoring: 31 May, 7 June, 21 June. SAF: at least one from class (f) each at <3 g/l, plus at least one from class (c).
(§5) Statistical Layout: Randomised Complete Block trials, under glasshouse conditions, United Kingdom.

[5] = system: Winter wheat cv Alchemy; assay: Safening of herbicides (Chlorotoluron, Isoproturon, Flumioxazin), winter wheat
Description: as §3, §4, §5

[6] = system: Maize cv Sundance (i.e. not Roundup Ready); conditions: no glyphosate; for Vigour (0-9) + 14 Days / Vigour (0-9) + 28 Days / Vigour (0-9) + 41 Days: scale 0-9, 0=least vigour, 9=most vigour
[7] = Table 1.3, winter barley, general fertilisers, score 0-9, +14 days
[8] = Table 1.3, winter barley, general fertilisers, score 0-9, +28 days
[9] = Table 1.8, lettuce, KP/ATS, score 0-9, +14 days
[10] = Table 1.8, lettuce, KP/ATS, score 0-9, +28 days
[11] = Table 1.9, lettuce, general fertilisers, score 0-9, 9 = Most Vigour, +14 days
[12] = Table 1.9, lettuce, general fertilisers, score 0-9, +28 days
[13] = score 0-9, 0 = dead, +28 days, herbicides Carbetamide and Propaquizafop, Table 3.2
[14] = herbicide Bifenox (with insecticide), Table 3.1
[15] = herbicides Carbetamide and Propaquizafop, Table 3.2
[16] = +28 days, herbicide Bifenox (with insecticide), Table 3.1
[17] = +28 days, herbicides Carbetamide and Propaquizafop, Table 3.2
[18] = scale 0-9, 0=dead, 9=least phytotoxicity

CC(=O)Nc1ccc(O)cc1 [AC, N-(4-hydroxypheyl)acetamide, reference compound]
8.0: Vigour (0-9) + 28 Days ([1]; 672 h) | Vigour (0-9) + 28 Days [1, 8] | Vigour (0-9) (9 = Most Vigour) + 14 days ([3]; 336 h) | Vigour (0-9) + 28 Days ([3]; 672 h) | Vigour (0-9) (9 = Most Vigour) + 14 days [3, 9] | Vigour (0-9) + 28 Days [3, 10] | Vigour (0-9) (9 = Most Vigour) + 14 days [3, 11] | Vigour (0-9) + 28 Days [3, 12] | Phytotoxicity (0-9) + 28 Days [4, 13] | Greenness (0-9) (9 = Deeper Green) + 14 Days [4, 14] | Vigour (0-9) (9 = Most Vigour) + 14 days [4, 14] | Greenness (0-9) (9 = Deeper Green) + 14 Days [4, 15] | Vigour (0-9) (9 = Most Vigour) + 14 days [4, 15] | Greenness (0-9) + 28 Days [4, 16] | Vigour (0-9) + 28 Days [4, 16] | Greenness (0-9) + 28 Days [4, 17] | Vigour (0-9) + 28 Days [4, 17] | Greenness (0-9) (9 = Deeper Green) + 14 Days ([5]; Table 3.3, no herbicide) | Greenness (0-9) + 28 Days ([5]; Table 3.3, no herbicide) | Phytotoxicity (0-9) + 28 Days ([5]; Table 3.3, no herbicide) | Greenness (0-9) (9 = Deeper Green) + 14 Days ([5]; Table 3.4, no herbicide) | Greenness (0-9) + 28 Days ([5]; Table 3.4, no herbicide) | Phytotoxicity (0-9) + 28 Days ([5]; Table 3.4, no herbicide) | Greenness (0-9) (9 = Deeper Green) + 14 Days ([5]; Table 3.5, no herbicide) | Greenness (0-9) + 28 Days ([5]; Table 3.5, no herbicide) | Phytotoxicity (0-9) + 28 Days ([5]; Table 3.5, no herbicide) | Phytotoxicity (0-9) (0 = Dead) + 41 days [6, 18] | Vigour (0-9) + 14 Days [6] | Vigour (0-9) + 28 Days ([6]; 28 days) | Vigour (0-9) + 41 Days [6]
7.0: Vigour (0-9) (9 = Most Vigour) + 14 days ([1]; 336 h) | Vigour (0-9) (9 = Most Vigour) + 14 days [1, 7] | Phytotoxicity (0-9) (0 = Dead) + 14 Days ([2]; in vivo) | Phytotoxicity (0-9) (0 = Dead) + 14 Days ([3]; in vivo)
6.5: Phytotoxicity (0-9) (0 = Dead) + 28 Days ([3]; in vivo)

Nc1ccccc1C(=O)O [AN, anthranilic acid]
9.0: Phytotoxicity (0-9) (0 = Dead) + 14 Days ([4]; score 0-9, 0 = dead, herbicide Bifenox (with insecticide), Table 3.1) | Phytotoxicity (0-9) (0 = Dead) + 14 Days ([4]; score 0-9, 0 = dead, herbicides Carbetamide and Propaquizafop, Table 3.2) | Vigour (0-9) (9 = Most Vigour) + 14 days [4, 14] | Vigour (0-9) (9 = Most Vigour) + 14 days [4, 15] | Phytotoxicity (0-9) (0 = Dead) + 14 Days ([5]; Table 3.3, no herbicide) | Vigour (0-9) (9 = Most Vigour) + 14 days ([5]; Table 3.3, no herbicide) | Phytotoxicity (0-9) (0 = Dead) + 14 Days ([5]; Table 3.4, no herbicide) | Vigour (0-9) (9 = Most Vigour) + 14 days ([5]; Table 3.4, no herbicide) | Phytotoxicity (0-9) (0 = Dead) + 14 Days ([5]; Table 3.5, no herbicide) | Vigour (0-9) (9 = Most Vigour) + 14 days ([5]; Table 3.5, no herbicide)
8.5: Vigour (0-9) + 28 Days ([2]; Table 1.4, winter wheat, phosphite fertiliser (KP)) | Vigour (0-9) + 28 Days ([2]; Table 1.5, winter wheat, KP/ATS) | Vigour (0-9) + 28 Days ([2]; Table 1.6, winter wheat, general fertilisers)
8.0: Phytotoxicity (0-9) (0 = Dead) + 28 Days ([1]; Table 1.1, winter barley, phosphite fertiliser (KP), +28 days) | Vigour (0-9) + 28 Days ([1]; Table 1.1, winter barley, phosphite fertiliser (KP), score 0-9, +28 days) | Phytotoxicity (0-9) (0 = Dead) + 28 Days ([1]; Table 1.2, winter barley, KP/ATS, +28 days) | Vigour (0-9) + 28 Days ([1]; Table 1.2, winter barley, KP/ATS, score 0-9, +28 days) | Phytotoxicity (0-9) (0 = Dead) + 28 Days ([1]; Table 1.3, winter barley, general fertilisers, +28 days) | Vigour (0-9) + 28 Days [1, 8] | Phytotoxicity (0-9) (0 = Dead) + 28 Days ([2]; Table 1.4, winter wheat, phosphite fertiliser (KP), score 0-9, 0 = dead) | Vigour (0-9) (9 = Most Vigour) + 14 days ([2]; Table 1.4, winter wheat, phosphite fertiliser (KP), +14 days) | Phytotoxicity (0-9) (0 = Dead) + 28 Days ([2]; Table 1.5, winter wheat, KP/ATS, score 0-9, 0 = dead) | Vigour (0-9) (9 = Most Vigour) + 14 days ([2]; Table 1.5, winter wheat, KP/ATS, +14 days) | Phytotoxicity (0-9) (0 = Dead) + 28 Days ([2]; Table 1.6, winter wheat, general fertilisers, score 0-9, 0 = dead) | Vigour (0-9) (9 = Most Vigour) + 14 days ([2]; Table 1.6, winter wheat, general fertilisers, +14 days) | Vigour (0-9) (9 = Most Vigour) + 14 days ([3]; Table 1.7, lettuce, phosphite fertiliser (KP), score 0-9, +14 days) | Vigour (0-9) + 28 Days ([3]; Table 1.7, lettuce, phosphite fertiliser (KP), score 0-9, +28 days) | Vigour (0-9) (9 = Most Vigour) + 14 days [3, 9] | Vigour (0-9) + 28 Days [3, 10] | Vigour (0-9) (9 = Most Vigour) + 14 days [3, 11] | Vigour (0-9) + 28 Days [3, 12] | Phytotoxicity (0-9) (0 = Dead) + 28 Days ([4]; score 0-9, 0 = dead, +28 days, herbicide Bifenox (with insecticide), Table 3.1) | Phytotoxicity (0-9) + 28 Days [4, 13] | Greenness (0-9) (9 = Deeper Green) + 14 Days [4, 14] | Greenness (0-9) (9 = Deeper Green) + 14 Days [4, 15] | Greenness (0-9) + 28 Days [4, 16] | Vigour (0-9) + 28 Days [4, 16] | Greenness (0-9) + 28 Days [4, 17] | Vigour (0-9) + 28 Days [4, 17] | Greenness (0-9) (9 = Deeper Green) + 14 Days ([5]; Table 3.3, no herbicide) | Greenness (0-9) + 28 Days ([5]; Table 3.3, no herbicide) | Phytotoxicity (0-9) + 28 Days ([5]; Table 3.3, no herbicide) | Vigour (0-9) + 28 Days ([5]; Table 3.3, no herbicide) | Greenness (0-9) (9 = Deeper Green) + 14 Days ([5]; Table 3.4, no herbicide) | Greenness (0-9) + 28 Days ([5]; Table 3.4, no herbicide) | Phytotoxicity (0-9) + 28 Days ([5]; Table 3.4, no herbicide) | Vigour (0-9) + 28 Days ([5]; Table 3.4, no herbicide) | Greenness (0-9) (9 = Deeper Green) + 14 Days ([5]; Table 3.5, no herbicide) | Greenness (0-9) + 28 Days ([5]; Table 3.5, no herbicide) | Phytotoxicity (0-9) + 28 Days ([5]; Table 3.5, no herbicide) | Vigour (0-9) + 28 Days ([5]; Table 3.5, no herbicide) | Phytotoxicity (0-9) (0 = Dead) + 14 Days ([6]; scale 0-9, 0=dead, 9=least phytotoxicity, 14 days after spraying) | Phytotoxicity (0-9) (0 = Dead) + 28 Days ([6]; scale 0-9, 0=dead, 9=least phytotoxicity, 28 days) | Phytotoxicity (0-9) (0 = Dead) + 41 days [6, 18] | Vigour (0-9) + 14 Days [6] | Vigour (0-9) + 28 Days ([6]; 28 days) | Vigour (0-9) + 41 Days [6]
7.5: Phytotoxicity (0-9) (0 = Dead) + 14 Days ([1]; Table 1.1, winter barley, phosphite fertiliser (KP), +14 days) | Phytotoxicity (0-9) (0 = Dead) + 14 Days ([1]; Table 1.2, winter barley, KP + ammonium thiosulphate (KP/ATS), +14 days) | Phytotoxicity (0-9) (0 = Dead) + 14 Days ([1]; Table 1.3, winter barley, general NPK fertilisers (GEN + KP, GENEX), +14 days) | Phytotoxicity (0-9) (0 = Dead) + 14 Days ([2]; Table 1.4, winter wheat, phosphite fertiliser (KP), score 0-9, 0 = dead, +14 days) | Phytotoxicity (0-9) (0 = Dead) + 14 Days ([2]; Table 1.5, winter wheat, thiosulphate and phosphite fertilisers (KP/ATS), score 0-9, 0 = dead, +14 days) | Phytotoxicity (0-9) (0 = Dead) + 14 Days ([2]; Table 1.6, winter wheat, general NPK fertilisers (GEN + KP, GENEX), score 0-9, 0 = dead, +14 days)
7.0: Vigour (0-9) (9 = Most Vigour) + 14 days ([1]; Table 1.1, winter barley, phosphite fertiliser (KP), score 0-9, +14 days) | Vigour (0-9) (9 = Most Vigour) + 14 days ([1]; Table 1.2, winter barley, KP/ATS, score 0-9, +14 days) | Vigour (0-9) (9 = Most Vigour) + 14 days [1, 7] | Phytotoxicity (0-9) (0 = Dead) + 14 Days ([3]; Table 1.7, lettuce, phosphite fertiliser (KP), score 0-9, 0 = dead, +14 days) | Phytotoxicity (0-9) (0 = Dead) + 28 Days ([3]; Table 1.7, lettuce, phosphite fertiliser (KP), score 0-9, 0 = dead, +28 days) | Phytotoxicity (0-9) (0 = Dead) + 14 Days ([3]; Table 1.8, lettuce, KP + ammonium thiosulphate (KP/ATS), score 0-9, 0 = dead, +14 days) | Phytotoxicity (0-9) (0 = Dead) + 28 Days ([3]; Table 1.8, lettuce, KP/ATS, score 0-9, 0 = dead, +28 days) | Phytotoxicity (0-9) (0 = Dead) + 14 Days ([3]; Table 1.9, lettuce, general fertilisers, score 0-9, 0 = Dead, +14 days) | Phytotoxicity (0-9) (0 = Dead) + 28 Days ([3]; Table 1.9, lettuce, general fertilisers, score 0-9, 0 = Dead, +28 days)

From patent US20120088667A1, “SAFENING AGENT” (priority 2009, published 2012)
